Like-named read-outs stand apart in the source and are kept apart here.
What was measured:
Type in all cases: biochemical
CLK2 (h) = biological target: T1, CLK2 (h) (Homo sapiens, UniProt P49760); assay: CLK2 KinaseProfiler radiometric protein kinase assay
T1 construct: purchased Merck Millipore (KinaseProfiler service)
Description: (§1) In vitro essays were performed by the company Merck Millipore in their KinaseProfiler radiometric protein kinase assay as paid commercial service. The compounds IC50 values for inhibition of individual protein kinases were determined. Dose-response curves were plotted from inhibition data generated, each in duplicate, from 10 point serial dilutions of inhibitory compounds. Concentration of compound was plotted against % kinase activity. To generate IC50 values, the dose-response curves were fitted to a standard sigmoidal curve and IC50 values were derived by standard nonlinear regression analysis.
(§2) All tested compounds were prepared in 100% DMSO to final assay concentrations either 0.5 mM (for the concentration row A, see below) or 0.05 mM (for the concentration row B). This working stock of the compound was added to the assay well as the first component in the reaction, followed by the remaining components as detailed below. The stock solution was added to the individual assay wells in such amounts that the concentrations of the compound were either in the row A (0.001 μM, 0.003 μM, 0.01 μM, 0.03 μM, 0.1 μM, 0.3 μM, 1.0 μM, 3.0 μM, and 10.0 μM) or in the row B (0.0001 μM, 0.0003 μM, 0.001 μM, 0.003 μM, 0.01 μM, 0.03 μM, 0.1 μM, 0.3 μM, and 1.0 μM). There was no pre-incubation step between the compound and the kinase prior to initiation of the reaction.
(§3) The positive control wells contained all components of the reaction, except the compound of interest; however, DMSO (at a final concentration of 2%) was included in these wells to control for solvent effects. The blank wells contained all components of the reaction, with staurosporine as a reference inhibitor replacing the compound of interest. This abolished kinase activity and established the base-line (0% kinase activity remaining).
CLK2 (h) was diluted in the buffer (20 mM MOPS (3-(N-morpholino)propanesulfonic acid), 1 mM EDTA (ethylendiaminotetraacetic acid), 0.01% Brij-35 (detergent), 5% Glycerol, 0.1% β-mercaptoethanol, 1 mg/mL BSAs) to the concentration of 1.01 mg/mL prior to addition to the reaction mix.
(§4) The above stock solution of CLK2(h) was added to a mixture containing 8 mM MOPS pH 7.0, 0.2 mM EDTA, and 20 μM […](p) EDEEE in such amount that the resulting concentration of CLK2(h) was 2.1 nM. This mixture was added to the stock solution of the tested compound. The reaction was initiated by the addition of the MgATP mix in such amount that the resulting concentration of Mg acetate in the reaction mixture was 10 mM and [γ-^33P-ATP] (specific activity approx. 500 cpm/pmol) was 15 μM. After incubation for 40 minutes at room temperature, the reaction was stopped by the addition of 3% phosphoric acid solution. 10 μL of the reaction was then spotted onto a P30 filtermat and washed three times for 5 minutes in 75 mM phosphoric acid and once in methanol prior to drying and scintillation counting.

CLK4 (h) = biological target: T2, CLK4 (h) (Homo sapiens, UniProt Q9HAZ1); assay: CLK4 KinaseProfiler radiometric protein kinase assay; details: 15 μM ATP, 40 minutes at room temperature
T2 construct: purchased Merck Millipore (KinaseProfiler service)
T2 sequence (Q9HAZ1 whole entry): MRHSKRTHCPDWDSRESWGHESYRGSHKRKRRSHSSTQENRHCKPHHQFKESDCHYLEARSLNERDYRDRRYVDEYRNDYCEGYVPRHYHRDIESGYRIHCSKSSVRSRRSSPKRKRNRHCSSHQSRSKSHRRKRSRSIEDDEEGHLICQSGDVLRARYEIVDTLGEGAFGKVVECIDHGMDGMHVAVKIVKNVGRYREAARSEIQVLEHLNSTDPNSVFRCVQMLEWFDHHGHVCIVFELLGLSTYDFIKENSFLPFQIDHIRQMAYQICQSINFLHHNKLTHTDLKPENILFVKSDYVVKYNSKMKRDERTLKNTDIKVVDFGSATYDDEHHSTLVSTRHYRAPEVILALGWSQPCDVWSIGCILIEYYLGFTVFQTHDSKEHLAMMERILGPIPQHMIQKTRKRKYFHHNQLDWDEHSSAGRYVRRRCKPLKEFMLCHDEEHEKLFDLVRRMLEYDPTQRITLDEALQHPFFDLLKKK
Description: as §1, §2, §3
CLK4 (h) was diluted in the buffer (20 mM MOPS, 1 mM EDTA, 0.01% Brij-35, 5% Glycerol, 0.1% β-mercaptoethanol, 1 mg/mL BSAs) to the concentration of 1.01 mg/mL prior to addition to the reaction mix.
as §4, with “CLK4(h)” for “CLK2(h)”, “200” for “20”, “140.8” for “2.1”

HIPK1(h) = biological target: T3, HIPK1(h) (Homo sapiens, UniProt Q86Z02); assay: HIPK1 KinaseProfiler radiometric protein kinase assay; details: 45 μM ATP, 40 minutes at room temperature
T3 construct: purchased Merck Millipore (KinaseProfiler service)
T3 sequence (Q86Z02 whole entry): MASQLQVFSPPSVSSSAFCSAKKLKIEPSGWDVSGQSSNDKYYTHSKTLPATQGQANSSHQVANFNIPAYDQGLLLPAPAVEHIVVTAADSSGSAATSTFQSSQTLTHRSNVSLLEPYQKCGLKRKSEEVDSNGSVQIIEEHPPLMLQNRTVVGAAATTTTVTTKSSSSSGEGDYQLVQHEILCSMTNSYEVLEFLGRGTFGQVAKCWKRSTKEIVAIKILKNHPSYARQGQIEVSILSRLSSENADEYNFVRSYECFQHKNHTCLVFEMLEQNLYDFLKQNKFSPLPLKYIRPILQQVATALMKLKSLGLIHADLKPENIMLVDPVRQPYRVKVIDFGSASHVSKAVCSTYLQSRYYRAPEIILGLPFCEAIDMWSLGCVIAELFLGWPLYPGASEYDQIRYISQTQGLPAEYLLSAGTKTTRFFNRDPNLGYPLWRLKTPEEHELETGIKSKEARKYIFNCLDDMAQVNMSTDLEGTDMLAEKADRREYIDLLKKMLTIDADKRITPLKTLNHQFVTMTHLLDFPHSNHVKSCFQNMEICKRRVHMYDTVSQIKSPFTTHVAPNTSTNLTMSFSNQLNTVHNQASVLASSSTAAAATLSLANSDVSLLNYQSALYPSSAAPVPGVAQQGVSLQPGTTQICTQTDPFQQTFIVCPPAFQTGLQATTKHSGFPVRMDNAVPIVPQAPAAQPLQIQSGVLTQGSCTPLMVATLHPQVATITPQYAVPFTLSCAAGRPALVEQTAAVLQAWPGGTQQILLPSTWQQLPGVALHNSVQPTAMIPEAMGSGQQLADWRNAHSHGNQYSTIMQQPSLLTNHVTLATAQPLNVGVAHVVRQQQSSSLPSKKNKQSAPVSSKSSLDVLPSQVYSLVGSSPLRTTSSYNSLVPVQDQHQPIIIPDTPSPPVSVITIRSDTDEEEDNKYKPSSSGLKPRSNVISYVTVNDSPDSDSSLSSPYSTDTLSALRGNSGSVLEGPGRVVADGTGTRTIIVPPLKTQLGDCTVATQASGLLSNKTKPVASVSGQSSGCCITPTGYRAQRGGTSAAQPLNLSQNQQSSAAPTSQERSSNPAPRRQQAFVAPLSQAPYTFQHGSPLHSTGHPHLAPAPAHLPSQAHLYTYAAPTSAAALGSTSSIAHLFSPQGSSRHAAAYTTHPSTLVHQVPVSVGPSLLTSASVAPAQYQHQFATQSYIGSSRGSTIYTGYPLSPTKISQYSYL
Description: as §1, §2, §3
HIPK1(h) was diluted in the buffer (20 mM MOPS, 1 mM EDTA, 0.01% Brij-35, 5% Glycerol, 0.1% β-mercaptoethanol, 1 mg/mL BSAs) to the concentration of 1.01 mg/mL prior to addition to the reaction mix.
(§5) The above stock solution of HIPK1(h) was added to a mixture containing 8 mM MOPS pH 7.0, 0.2 mM EDTA, and 0.33 mg/mL myelin basic protein in such amount that the resulting concentration of HIPK1(h) was 4.7 nM. This mixture was added to the stock solution of the tested compound. The reaction was initiated by the addition of the MgATP mix in such amount that the resulting concentration of Mg acetate in the reaction mixture was 10 mM and [γ-^33P-ATP] (specific activity approx. 500 cpm/pmol) was 45 μM. After incubation for 40 minutes at room temperature, the reaction was stopped by the addition of 3% phosphoric acid solution. 10 μL of the reaction was then spotted onto a P30 filtermat and washed three times for 5 minutes in 75 mM phosphoric acid and once in methanol prior to drying and scintillation counting.

HIPK2(h) = biological target: T4, HIPK2(h) (Homo sapiens, UniProt Q9H2X6); assay: HIPK2 KinaseProfiler radiometric protein kinase assay; details: 10 μM ATP, 40 minutes at room temperature
T4 construct: purchased Merck Millipore (KinaseProfiler service)
T4 sequence (Q9H2X6 whole entry): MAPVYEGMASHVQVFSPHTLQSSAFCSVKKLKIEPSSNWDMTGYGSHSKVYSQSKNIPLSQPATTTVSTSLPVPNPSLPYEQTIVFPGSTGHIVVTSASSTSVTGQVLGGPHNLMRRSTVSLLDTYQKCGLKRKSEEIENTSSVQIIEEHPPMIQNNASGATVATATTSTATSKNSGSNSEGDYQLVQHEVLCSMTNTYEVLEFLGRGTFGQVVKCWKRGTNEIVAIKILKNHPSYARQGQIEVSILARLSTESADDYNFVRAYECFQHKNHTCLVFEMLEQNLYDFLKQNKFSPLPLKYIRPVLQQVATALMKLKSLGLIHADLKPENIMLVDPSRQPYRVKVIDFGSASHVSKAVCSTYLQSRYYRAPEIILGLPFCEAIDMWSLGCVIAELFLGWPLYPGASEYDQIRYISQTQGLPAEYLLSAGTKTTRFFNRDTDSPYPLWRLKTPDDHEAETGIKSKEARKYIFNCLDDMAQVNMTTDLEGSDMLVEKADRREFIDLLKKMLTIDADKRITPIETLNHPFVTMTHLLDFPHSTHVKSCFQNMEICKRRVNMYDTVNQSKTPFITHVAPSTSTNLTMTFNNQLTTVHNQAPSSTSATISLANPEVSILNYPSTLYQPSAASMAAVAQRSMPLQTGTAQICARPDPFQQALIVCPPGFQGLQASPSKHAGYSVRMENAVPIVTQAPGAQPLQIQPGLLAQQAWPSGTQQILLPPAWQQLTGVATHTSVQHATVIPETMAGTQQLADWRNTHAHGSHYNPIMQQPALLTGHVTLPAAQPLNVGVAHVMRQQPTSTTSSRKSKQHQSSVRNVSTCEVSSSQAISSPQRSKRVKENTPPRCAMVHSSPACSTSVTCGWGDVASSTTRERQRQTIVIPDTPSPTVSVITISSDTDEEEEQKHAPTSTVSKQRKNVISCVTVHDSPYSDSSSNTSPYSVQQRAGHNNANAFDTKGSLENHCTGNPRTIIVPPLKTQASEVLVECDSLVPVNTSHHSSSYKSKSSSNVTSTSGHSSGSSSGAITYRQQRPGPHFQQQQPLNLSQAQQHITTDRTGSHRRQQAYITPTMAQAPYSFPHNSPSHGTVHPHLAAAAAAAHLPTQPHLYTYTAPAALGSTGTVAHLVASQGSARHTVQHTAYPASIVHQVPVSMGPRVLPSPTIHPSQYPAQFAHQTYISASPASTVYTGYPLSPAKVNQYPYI
Description: as §1, §2, §3
HIPK2(h) was diluted in the buffer (20 mM MOPS, 1 mM EDTA, 0.01% Brij-35, 5% Glycerol, 0.1% β-mercaptoethanol, 1 mg/mL BSAs) to the concentration of 1.01 mg/mL prior to addition to the reaction mix.
as §5, with “HIPK2(h)” for “HIPK1(h)”, “1.4” for “4.7”, “10” for “45”

DYRK2 = biological target: T5, DYRK2 (Homo sapiens, UniProt Q92630); assay: DYRK2 KinaseProfiler radiometric protein kinase assay
T5 construct: purchased Merck Millipore (KinaseProfiler service)
T5 sequence (Q92630 1-601): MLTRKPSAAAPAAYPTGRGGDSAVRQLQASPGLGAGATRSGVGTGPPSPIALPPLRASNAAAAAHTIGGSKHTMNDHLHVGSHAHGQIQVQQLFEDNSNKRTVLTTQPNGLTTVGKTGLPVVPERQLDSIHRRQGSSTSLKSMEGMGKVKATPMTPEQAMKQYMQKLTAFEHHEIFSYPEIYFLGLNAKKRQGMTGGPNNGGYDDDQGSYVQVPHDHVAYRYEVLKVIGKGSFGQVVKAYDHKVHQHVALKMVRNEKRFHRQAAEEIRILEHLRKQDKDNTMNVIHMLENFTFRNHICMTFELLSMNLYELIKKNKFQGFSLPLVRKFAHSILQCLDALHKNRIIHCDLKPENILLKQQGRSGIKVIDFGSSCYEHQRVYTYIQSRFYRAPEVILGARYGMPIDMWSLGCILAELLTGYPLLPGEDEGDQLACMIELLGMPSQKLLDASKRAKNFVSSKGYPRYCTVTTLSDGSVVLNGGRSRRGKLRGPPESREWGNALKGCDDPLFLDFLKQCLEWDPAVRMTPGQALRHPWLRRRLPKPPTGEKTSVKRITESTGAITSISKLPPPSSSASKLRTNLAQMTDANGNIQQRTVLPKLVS
Description: as §1, §2, §3

[1] = radiometric, 15 μM ATP, 40 minutes at room temperature, read-out: CLK2 IC50

T1 sequence (P49760 whole entry): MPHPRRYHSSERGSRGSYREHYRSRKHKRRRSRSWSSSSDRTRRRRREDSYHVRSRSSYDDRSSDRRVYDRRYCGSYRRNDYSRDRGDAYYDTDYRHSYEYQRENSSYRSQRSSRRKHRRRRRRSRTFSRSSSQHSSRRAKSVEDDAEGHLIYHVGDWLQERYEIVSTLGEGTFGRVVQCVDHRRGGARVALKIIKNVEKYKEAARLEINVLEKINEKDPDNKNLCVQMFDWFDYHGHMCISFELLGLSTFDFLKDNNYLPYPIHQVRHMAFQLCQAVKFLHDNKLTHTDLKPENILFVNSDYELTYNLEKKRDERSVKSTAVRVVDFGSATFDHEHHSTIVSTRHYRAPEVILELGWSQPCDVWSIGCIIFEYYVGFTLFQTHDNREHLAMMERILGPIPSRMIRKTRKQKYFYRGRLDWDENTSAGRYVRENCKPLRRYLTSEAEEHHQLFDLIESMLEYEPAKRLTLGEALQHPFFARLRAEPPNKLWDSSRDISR

Row | IC50 (CLK2 (h); [1]) [nM] | IC50 (CLK4 (h)) [nM] | IC50 (HIPK1(h)) [nM] | IC50 (HIPK2(h)) [nM] | IC50 (DYRK2) [nM] | IC50 (CLK2 (h)) [nM] | SMILES
1 | < 5000 | < 1000 | < 5000 | < 5000 |  |  | c1ccc(-c2coc3ccc(-c4cccnc4)nc23)cc1 [Preparative Example 6D]
2 | < 5000 | < 5000 |  | < 5000 |  |  | CC(C)n1cc(-c2ccc3occ(-c4ccc5ccccc5c4)c3n2)cn1 [Preparative Example 7C]
3 | < 1000 | < 1000 | < 1000 | < 100 |  |  | c1ccc2cc(-c3coc4ccc(-c5cncs5)nc34)ccc2c1 [Preparative Example 7F]
4 | < 5000 | < 1000 |  |  |  |  | Cn1cc(-c2ccc3occc3n2)cn1 [Preparative Example 12B]
5 | < 1000 | < 1000 |  |  | < 5000 |  | CCc1coc2ccc(-c3cnn(C)c3)nc12 [Preparative Example 23]
6 |  | < 5000 | < 1000 | < 1000 |  | < 5000 | CC(C)(C)c1ccc(-c2coc3ccc(-c4cn[nH]c4)nc23)cc1 [Preparative Example 54]
7 | < 1000 | < 1000 |  |  |  |  | CC(C)(C)c1coc2ccc(-c3cn[nH]c3)nc12 [Preparative Example 55]
8 | < 100 | < 100 | < 1000 | < 100 | < 5000 |  | Cn1cc(-c2ccc3occ(-c4cccc(-c5ccccc5)c4)c3n2)cn1 [Preparative Example 61]
9 | < 5000 | < 5000 | < 1000 | < 1000 |  |  | c1ccc2cc(-c3coc4ccc(-c5cnoc5)nc34)ccc2c1 [Preparative Example 62]
10 | < 100 |  | < 1000 |  | < 1000 |  | Cn1cc(-c2ccc3occ(-c4ccc5cn[nH]c5c4)c3n2)cn1 [Preparative Example 65]
11 | < 1000 |  | < 1000 |  | < 5000 |  | Cn1cc(-c2ccc3occ(-c4ccc(C(N)=O)cc4)c3n2)cn1 [Preparative Example 66]
12 | < 1000 |  | < 1000 |  | < 5000 |  | Cn1cc(-c2ccc3occ(-c4ccc(CO)cc4)c3n2)cn1 [Preparative Example 70]
13 | < 1000 |  | < 5000 |  | < 5000 |  | Cn1cc(-c2ccc3occ(-c4ccc(S(C)(=O)=O)cc4)c3n2)cn1 [Preparative Example 71]
14 | < 5000 |  |  |  | < 5000 |  | Cn1cc(-c2ccc3occ(-c4ccc([S+](C)[O-])cc4)c3n2)cn1 (stereo not drawn) [Preparative Example 73]
15 | < 1000 |  | < 5000 |  |  |  | Cn1cc(-c2ccc3occ(-c4cccc(C(C)(C)C)c4)c3n2)cn1 [Preparative Example 74]
16 | < 1000 |  |  |  |  |  | Cc1cc2occ(-c3ccc4ccccc4c3)c2nc1-c1cnn(C)c1 [Preparative Example 80]
17 | < 5000 |  | < 5000 |  | < 5000 |  | Cn1cc(-c2ccc3occ(-c4ccc(-c5nnn[nH]5)cc4)c3n2)cn1 [Preparative Example 81]

Reference: patent US9902733B2, “Furopyridines as inhibitors of protein kinases” (MASARYKOVA UNIVERZITA, priority 2014, dated 2018)
